# Measured values taken from ChEMBL document CHEMBL1255168, “1-Aryl-3-(1-acylpiperidin-4-yl)urea inhibitors of human and murine soluble epoxide hydrolase: structure-activity relationships, pharmacokinetics, and reduction of inflammatory pain” (J Med Chem, 2010).
# pIC50: −log10 of the molar value.
# Key:
# [1] = molecular target: T1, Bifunctional epoxide hydrolase 2 (Mus musculus, UniProt P34914)
# T1 sequence (P34914 whole entry): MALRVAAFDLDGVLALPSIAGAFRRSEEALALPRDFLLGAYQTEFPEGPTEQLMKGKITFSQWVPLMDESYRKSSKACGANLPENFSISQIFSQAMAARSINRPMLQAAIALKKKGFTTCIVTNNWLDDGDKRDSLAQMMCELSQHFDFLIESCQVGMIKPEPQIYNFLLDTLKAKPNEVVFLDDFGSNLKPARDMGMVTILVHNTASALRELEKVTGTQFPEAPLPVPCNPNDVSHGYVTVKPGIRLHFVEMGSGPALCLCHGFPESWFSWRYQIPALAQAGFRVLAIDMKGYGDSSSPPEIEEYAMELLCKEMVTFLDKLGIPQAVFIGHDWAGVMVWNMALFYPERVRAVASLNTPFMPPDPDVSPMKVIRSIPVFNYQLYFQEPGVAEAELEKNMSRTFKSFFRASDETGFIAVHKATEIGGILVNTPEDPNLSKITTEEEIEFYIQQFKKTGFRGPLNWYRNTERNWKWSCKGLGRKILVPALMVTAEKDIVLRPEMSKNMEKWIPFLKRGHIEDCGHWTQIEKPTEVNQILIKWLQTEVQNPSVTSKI
# Description: Inhibition of mouse recombinant soluble epoxide hydrolase by fluorescence assay
# [2] = molecular target: T2, Bifunctional epoxide hydrolase 2 (Homo sapiens, UniProt P34913)
# T2 sequence (P34913 whole entry): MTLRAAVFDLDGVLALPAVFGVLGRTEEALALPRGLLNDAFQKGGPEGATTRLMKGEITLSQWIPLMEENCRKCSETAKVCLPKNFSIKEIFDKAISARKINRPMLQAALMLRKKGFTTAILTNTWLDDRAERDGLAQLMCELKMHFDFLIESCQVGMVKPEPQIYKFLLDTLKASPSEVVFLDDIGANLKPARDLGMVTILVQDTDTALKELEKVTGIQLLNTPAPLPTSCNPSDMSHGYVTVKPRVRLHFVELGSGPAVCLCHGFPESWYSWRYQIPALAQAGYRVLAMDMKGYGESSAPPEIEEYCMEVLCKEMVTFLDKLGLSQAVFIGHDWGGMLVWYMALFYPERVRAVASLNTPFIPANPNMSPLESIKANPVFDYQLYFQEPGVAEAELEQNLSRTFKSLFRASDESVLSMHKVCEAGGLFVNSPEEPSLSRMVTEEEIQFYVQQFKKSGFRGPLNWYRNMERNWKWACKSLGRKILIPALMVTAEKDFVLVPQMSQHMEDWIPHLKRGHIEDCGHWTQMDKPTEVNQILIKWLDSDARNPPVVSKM
# Description: Inhibition of human recombinant soluble epoxide hydrolase by fluorescence assay
Compound,pIC50 [1],pIC50 [2]
O=C(Nc1ccc(OC(F)(F)F)cc1)NC1CCN(C(=O)CN2CCN(Cc3ccccc3)CC2)CC1,7.74,8.82
CCC(=O)N1CCC(NC(=O)Nc2ccc3c(c2)OCO3)CC1,7.00,7.21
CCC(=O)N1CCC(NC(=O)Nc2cc(OC)c(OC)c(OC)c2)CC1,,< 5.30
CCC(=O)N1CCC(NC(=O)Nc2ccc(C(=O)OC)cc2)CC1,7.19,6.85
